From PubChem BioAssay AID623878 (Vanderbilt Specialized Chemistry Center, 2012)
Active and inactive are the calls of the source.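 The calls were made as follows: active = glutamate fold shift at least 2 as enhancer, or at most 0.5 as blocker, actives on both sides; inactive = the rest.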

Molecular target: Metabotropic glutamate receptor 2 (Rattus norvegicus) (UniProt P31421)
Test: rat mGlu2 allosteric modulation, SAR follow-up, selectivity assay for mGlu4 PAM project, cell-based, thallium flux, glutamate fold shift (AID 623878)
Conditions: rat mGlu2 cells, at 10 µM

Metabotropic glutamate receptor 2 (Rattus norvegicus), sequence (P31421 whole entry, looked up): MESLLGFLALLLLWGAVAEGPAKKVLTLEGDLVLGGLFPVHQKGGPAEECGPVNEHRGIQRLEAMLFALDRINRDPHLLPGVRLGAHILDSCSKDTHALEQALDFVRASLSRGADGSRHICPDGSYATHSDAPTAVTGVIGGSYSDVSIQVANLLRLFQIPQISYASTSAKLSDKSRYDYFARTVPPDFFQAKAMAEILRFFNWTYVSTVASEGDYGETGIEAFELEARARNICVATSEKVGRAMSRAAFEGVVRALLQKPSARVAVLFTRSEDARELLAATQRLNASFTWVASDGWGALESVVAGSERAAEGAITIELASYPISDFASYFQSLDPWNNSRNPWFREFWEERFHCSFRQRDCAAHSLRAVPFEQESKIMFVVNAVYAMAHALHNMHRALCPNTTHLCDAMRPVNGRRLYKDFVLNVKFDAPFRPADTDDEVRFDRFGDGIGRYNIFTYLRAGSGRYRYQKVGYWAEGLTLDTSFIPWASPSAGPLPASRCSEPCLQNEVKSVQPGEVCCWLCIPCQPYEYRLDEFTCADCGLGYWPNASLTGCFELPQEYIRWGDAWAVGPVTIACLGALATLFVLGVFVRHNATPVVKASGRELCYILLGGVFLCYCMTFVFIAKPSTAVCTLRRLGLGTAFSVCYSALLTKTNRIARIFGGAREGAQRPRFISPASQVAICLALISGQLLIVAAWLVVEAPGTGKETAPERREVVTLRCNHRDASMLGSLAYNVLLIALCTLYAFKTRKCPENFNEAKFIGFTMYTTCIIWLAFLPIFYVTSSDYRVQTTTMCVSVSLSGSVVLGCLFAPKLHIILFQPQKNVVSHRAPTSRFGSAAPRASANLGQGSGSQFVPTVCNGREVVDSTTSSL

fold shift: 0.98 (inactive)
Compound: O=C(Nc1cccc(Cl)c1)c1ccccn1
